# From patent publication US5495032A, “Process for producing 7-(substituted)-8-(substituted-9-[(substituted glycyl)amido]-6-demethyl-6-deoxytetracyclines” (priority 1994, dated 1996)
# Structures can show the parent of a compound that is named as a salt. Where two headings read alike, the source gives them in different places.
# How the values were obtained:
# Type in all cases: cell-based
# [1] = tested on: S. hemolyticus AVHAH 88-3; test: MIC, agar dilution method; settings: Streptococcus pyogenes, AVHAH883, 18 hours at 35° C., read-out: MIC
# S. aureus SMITH (MP) = test: MIC, agar dilution method; settings: Staphylococcus aureus, 18 hours at 35° C., read-out: MIC
# E. coli UBMS 90-4 Tet M = test: microbe, parasite or virus in culture; settings: Escherichia coli, UBMS904TETM, 18 h, 18 hours at 35° C.
# E. coli UBMS 89-1 Tet M = test: microbe, parasite or virus in culture; settings: Escherichia coli, UBMS891TETM, 18 h, 18 hours at 35° C.
# [2] = tested on: S. aureus UBMS 90-1 Tet M; test: microbe, parasite or virus in culture; settings: Staphylococcus aureus, UBMS901TETM, 18 h, 18 hours at 35° C.
# E. coli PRP1 Tet A = test: microbe, parasite or virus in culture; settings: Escherichia coli, PRP1TETA, 18 h, 18 hours at 35° C.
# E. coli ATCC 25922 = test: MIC, agar dilution method; settings: Escherichia coli, ATCC25922, 18 hours at 35° C., read-out: MIC
# [3] = tested on: S. aureus UBMS 88-7 Tet K; test: microbe, parasite or virus in culture; settings: Staphylococcus aureus, UBMS887TETK, 18 h, 18 hours at 35° C.
# [4] = tested on: X. maltophilia NEMC 87210; test: MIC, agar dilution method; settings: Stenotrophomonas maltophilia
# [5] = tested on: E. coli MC 4100 TNIOC Tet B; test: microbe, parasite or virus in culture; settings: Escherichia coli, 18 h, 18 hours at 35° C.
# S. aureus IVES 1 983 = test: MIC, agar dilution method; settings: Staphylococcus aureus, IVES1983; S. aureus IVES 1 983; 18 hours at 35° C.; read-out: MIC
# [6] = tested on: S. aureus UBMS 90-2 Tet M; test: microbe, parasite or virus in culture; settings: Staphylococcus aureus, UBMS902TETM, 18 h, 18 hours at 35° C.
# E. coli J2175 = test: MIC, agar dilution method; settings: Escherichia coli, 18 hours at 35° C., read-out: MIC
# E. coli BAJ9003 IMP MUT = test: microbe, parasite or virus in culture; settings: Escherichia coli, BAJ9003IMPMUT, 18 h, 18 hours at 35° C.
# E. faecalis ATCC 29212 = test: MIC, agar dilution method; settings: Enterococcus faecalis
# [7] = tested on: Ps. acruginosa ATCC 27853; test: MIC, agar dilution method
# [8] = tested on: S. aureus UBMS 88-5 Tet M; test: microbe, parasite or virus in culture; settings: Staphylococcus aureus, UBMS885TETM, 18 h
# S. aureus UBMS 88-4 = test: MIC, agar dilution method; settings: Staphylococcus aureus, UBMS884, 18 hours at 35° C., read-out: MIC
# [9] = tested on: E. coli MC 4100 Tet sens.; test: MIC, agar dilution method; settings: Escherichia coli, 18 hours at 35° C., read-out: MIC
# S. aureus ATCC 29213 = test: MIC, agar dilution method; settings: Staphylococcus aureus, ATCC29213, 18 hours at 35° C., read-out: MIC
# S. aureus NEMC 8769 = test: MIC, agar dilution method; settings: Staphylococcus aureus, NEMC8769; S. aureus NEMC 8769; 18 hours at 35° C.; read-out: MIC
# E. coli UBMS 88-1 Tet B = test: microbe, parasite or virus in culture; settings: Escherichia coli, UBMS881TETB, 18 h, 18 hours at 35° C.
# S. mariescens FPOR 8733 = test: MIC, agar dilution method; settings: 18 h, 18 hours at 35° C.
# E. coli #311 (MP) = test: MIC, agar dilution method; settings: Escherichia coli, 18 hours at 35° C., read-out: MIC
# Enterococcus 12201 = test: MIC, agar dilution method; settings: 18 hours at 35° C., read-out: MIC
# S. aureus ROSE (MP) = test: MIC, agar dilution method; settings: Staphylococcus aureus, 18 hours at 35° C., read-out: MIC
# E. coli J3272 Tet D = test: microbe, parasite or virus in culture; settings: Escherichia coli, J3272TETD, 18 h
# E. coli J3272 Tet C = test: microbe, parasite or virus in culture; settings: Escherichia coli, J3272TETC, 18 h
# S. aureus IVES 2943 = test: MIC, agar dilution method; settings: Staphylococcus aureus, IVES2943; S. aureus IVES 2943; 18 hours at 35° C.; read-out: MIC
# [10] = tested on: E. coli UBMS 89-2 Tet sens; test: MIC, agar dilution method; settings: Escherichia coli, UBMS892TETSENS, 18 h, 18 hours at 35° C., read-out: MIC
# E. coli UBMS 90-5 sens = test: MIC, agar dilution method; settings: Escherichia coli, UBMS905SENS, 18 hours at 35° C., read-out: MIC
smiles,measurement,setting,value
"CCCCNCC(=O)Nc1c(Cl)cc2c(c1O)C(=O)C1=C(O)[C@]3(O)C(=O)C(C(N)=O)=C(O)[C@@H](N(C)C)C3CC1C2 (stereo partly drawn) [D, [4S-(4α,12aα)]-9-[[(Butylamino)acetyl]amino]-8-chloro-4-(dimethylamino) -1,4,4a,5,5a,6,11,12a-octahydro-3,10,12,12a-tetrahydroxy-1,11-dioxo-2-naphthacenecarboxamide dihydrochloride]",MIC,[1],8 µg/mL
same,MIC,S. aureus SMITH (MP),0.5 µg/mL
same,MIC,E. coli UBMS 90-4 Tet M,1 µg/mL
same,MIC,E. coli UBMS 89-1 Tet M,0.5 µg/mL
same,MIC,[2],2 µg/mL
same,MIC,E. coli PRP1 Tet A,4 µg/mL
same,MIC,E. coli ATCC 25922,1 µg/mL
same,MIC,[3],8 µg/mL
same,MIC,"[4]; NEMC87210, 18 h, 18 hours at 35° C.",4 µg/mL
same,MIC,[5],1 µg/mL
same,MIC,S. aureus IVES 1 983,8 µg/mL
same,MIC,[6],0.5 µg/mL
same,MIC,E. coli J2175,1 µg/mL
same,MIC,E. coli BAJ9003 IMP MUT,0.25 µg/mL
same,MIC,"E. faecalis ATCC 29212; ATCC29212, 18 h, 18 hours at 35° C.",0.25 µg/mL
same,MIC,[7]; 18 h,> 32 µg/mL
same,MIC,[8],1 µg/mL
same,MIC,S. aureus UBMS 88-4,0.5 µg/mL
same,MIC,[9],0.25 µg/mL
same,MIC,S. aureus ATCC 29213,0.5 µg/mL
same,MIC,S. aureus NEMC 8769,0.5 µg/mL
same,MIC,E. coli UBMS 88-1 Tet B,2 µg/mL
same,MIC,S. mariescens FPOR 8733,16 µg/mL
same,MIC,E. coli #311 (MP),1 µg/mL
same,MIC,Enterococcus 12201,0.5 µg/mL
same,MIC,S. aureus ROSE (MP),16 µg/mL
same,MIC,E. coli J3272 Tet D,1 µg/mL
same,MIC,E. coli J3272 Tet C,2 µg/mL
same,MIC,S. aureus IVES 2943,16 µg/mL
same,MIC,[10],2 µg/mL
same,MIC,E. coli UBMS 90-5 sens,1 µg/mL
"CN(C)[C@@H]1C(O)=C(C(N)=O)C(=O)[C@@]2(O)C(O)=C3C(=O)c4c(cc(Cl)c(NC(=O)CCl)c4O)CC3CC12 (stereo partly drawn) [K, [4S-(4α,12aα)]-9-[(Chloroacetyl)amino]-8-chloro-4-(dimethylamino)-1,4,4a,5,5a ,6,11,12a-octahydro-3,10,12,12a-tetrahydroxy-1,11-dioxo-2-naphthacenecarboxamide hydrochloride]",MIC,[1],4 µg/mL
same,MIC,S. aureus SMITH (MP),0.5 µg/mL
same,MIC,E. coli UBMS 90-4 Tet M,> 32 µg/mL
same,MIC,E. coli UBMS 89-1 Tet M,8 µg/mL
same,MIC,[2],1 µg/mL
same,MIC,E. coli PRP1 Tet A,> 32 µg/mL
same,MIC,E. coli ATCC 25922,16 µg/mL
same,MIC,[3],4 µg/mL
same,MIC,"[4]; NEMC87210, 18 hours at 35° C., read-out: MIC",8 µg/mL
same,MIC,[5],> 32 µg/mL
same,MIC,S. aureus IVES 1 983,4 µg/mL
same,MIC,[6],0.5 µg/mL
same,MIC,E. coli J2175,> 32 µg/mL
same,MIC,E. coli BAJ9003 IMP MUT,1 µg/mL
same,MIC,"E. faecalis ATCC 29212; ATCC29212, 18 hours at 35° C., read-out: MIC",0.5 µg/mL
same,MIC,"[7]; Ps. acruginosa ATCC 27853, 18 hours at 35° C., read-out: MIC",> 32 µg/mL
same,MIC,"[8]; S. aureus UBMS 88-5 Tet M, 18 hours at 35° C.",1 µg/mL
same,MIC,S. aureus UBMS 88-4,0.5 µg/mL
same,MIC,[9],8 µg/mL
same,MIC,S. aureus ATCC 29213,0.5 µg/mL
same,MIC,S. aureus NEMC 8769,0.5 µg/mL
same,MIC,E. coli UBMS 88-1 Tet B,> 32 µg/mL
same,MIC,S. mariescens FPOR 8733,> 32 µg/mL
same,MIC,E. coli #311 (MP),16 µg/mL
same,MIC,Enterococcus 12201,2 µg/mL
same,MIC,S. aureus ROSE (MP),4 µg/mL
same,MIC,E. coli J3272 Tet D,> 32 µg/mL
same,MIC,E. coli J3272 Tet C,> 32 µg/mL
same,MIC,S. aureus IVES 2943,4 µg/mL
same,MIC,[10],> 32 µg/mL
same,MIC,E. coli UBMS 90-5 sens,> 32 µg/mL
